Tests used:
[1] = in water; cited from earlier work
db/db mice = assay: In vivo assay in db/db mice (blood glucose, body weight, food consumption); settings: for db/db mice - Mean Blood Glucose, 10 hr: 10 hr after first dose; for db/db mice - Mean Blood Glucose, 24 hr: 24 hr after first dose; for db/db mice - Mean Blood Glucose, 48 hr: 48 hr after first dose
Protocol: The 60 female db/db B6BKS (D) Leprdb/J (strain 000697) mice for this study were approximately 8 to 9 weeks old at arrival (Jackson Laboratory, Bar Harbor, Me.). […] One group of 8 female mice served as the vehicle control and received the vehicle, 0.2% BSA in saline, pH 7.4. One additional group of 8 female mice received the positive control article, liraglutide, at a dose level of 50 nmoles/kg. The test articles, vehicle, and positive control article were administered on Day 1, at approximately 0, 7, and 24 hours during the study via subcutaneous injection at a dose volume of 6 mL/kg.
Clinical observations were conducted at receipt, prior to randomization, and daily from Days 1 to 5. Body weights were measured and recorded at receipt, prior to randomization, and daily from Days 1 to 5. Food consumption was measured and recorded daily from Days 1 to 5. Blood samples for glucose analysis were collected pretest (Day −3) and at 0, 1, 2, 4, 8, 10, 24, 48, 72, and 96 hours following the first dose on Day 1. At study termination all animals were euthanized and the carcasses were discarded without further evaluation.

glucagon R = target: T1, glucagon R (Homo sapiens, UniProt P47871); assay: DiscoveRx LeadHunter cellular assay, cAMP stimulation, glucagon receptor; assay type: cell-based
T1 construct: host or cells: CHO cells
T1 sequence (P47871 26-477): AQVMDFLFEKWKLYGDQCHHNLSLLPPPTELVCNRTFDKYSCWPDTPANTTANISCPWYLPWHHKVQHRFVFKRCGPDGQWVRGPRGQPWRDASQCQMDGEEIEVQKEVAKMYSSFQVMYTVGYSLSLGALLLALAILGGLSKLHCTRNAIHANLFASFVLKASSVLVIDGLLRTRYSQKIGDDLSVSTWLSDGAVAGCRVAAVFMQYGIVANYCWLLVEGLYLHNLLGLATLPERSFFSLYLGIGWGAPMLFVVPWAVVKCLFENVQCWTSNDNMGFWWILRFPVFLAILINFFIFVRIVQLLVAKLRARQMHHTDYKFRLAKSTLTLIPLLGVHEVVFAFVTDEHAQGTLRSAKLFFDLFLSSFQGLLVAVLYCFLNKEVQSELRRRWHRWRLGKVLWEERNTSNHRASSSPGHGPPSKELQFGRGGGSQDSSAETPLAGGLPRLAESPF
Protocol: (§1) § means superagonist A further series of cellular assays were carried out using standard cellular assays (DiscoveRx, LeadHunter assays) using readout of cAMP stimulation or arrestin activation. Compounds were weighed precisely in an amount of approximately 1 mg and shipped to DiscoveRx for dilution and assay.

GLP-1 R = GLP-1 R (Homo sapiens, UniProt P43220); assay: DiscoveRx LeadHunter cellular assay, cAMP stimulation, GLP-1 receptor; assay type: cell-based
GLP-1 R, sequence (P43220 24-463): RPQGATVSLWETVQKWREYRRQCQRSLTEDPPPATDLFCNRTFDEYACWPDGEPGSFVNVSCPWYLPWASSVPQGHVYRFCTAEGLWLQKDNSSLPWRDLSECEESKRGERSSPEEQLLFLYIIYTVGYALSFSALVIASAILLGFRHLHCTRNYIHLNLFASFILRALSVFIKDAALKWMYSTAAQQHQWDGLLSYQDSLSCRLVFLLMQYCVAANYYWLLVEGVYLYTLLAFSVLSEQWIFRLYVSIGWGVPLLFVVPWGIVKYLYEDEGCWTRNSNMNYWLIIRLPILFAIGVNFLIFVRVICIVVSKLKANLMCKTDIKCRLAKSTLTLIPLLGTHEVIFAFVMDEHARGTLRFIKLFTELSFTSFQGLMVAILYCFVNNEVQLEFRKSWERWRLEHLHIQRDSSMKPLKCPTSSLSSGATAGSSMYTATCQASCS
Protocol: as §1

| Compound | CMC (critical micelle concentration) [1] | db/db mice - Mean Blood Glucose, 0 hr (db/db mice; 250 nmole/kg s.c.) | db/db mice - Mean Blood Glucose, 10 hr (db/db mice; 250 nmole/kg s.c.) | db/db mice - Mean Blood Glucose, 24 hr (db/db mice; 250 nmole/kg s.c.) | db/db mice - Mean Blood Glucose, 48 hr (db/db mice; 250 nmole/kg s.c.) | EC50 (glucagon R) | also measured |
| --- | --- | --- | --- | --- | --- | --- | --- |
| CCCCCCCCCCCCO[C@@H]1O[C@H](CO)[C@@H](O[C@H]2O[C@H](CO)[C@@H](O)[C@H](O)[C@H]2O)[C@H](O)[C@H]1O [Dodecyl-β-D-maltoside] | 0.17 mM |  |  |  |  |  |  |
| CCCCCCCCO[C@@H]1O[C@H](CO)[C@@H](O[C@H]2O[C@H](CO)[C@@H](O)[C@H](O)[C@H]2O)[C@H](O)[C@H]1O [Octyl maltoside] | 19.5 mM |  |  |  |  |  |  |
| CCCCCCCCCCCCCCO[C@@H]1O[C@H](CO)[C@@H](O[C@@H]2O[C@@H](CO)[C@H](O)[C@@H](O)[C@@H]2O)[C@H](O)[C@H]1O (stereo in doubt) [Tetradecyl maltoside] | 0.01 mM |  |  |  |  |  |  |
| CCCCCCCCCCCCCO[C@@H]1O[C@H](CO)[C@@H](OC2OC(CO)C(O)C(O)C2O)[C@H](O)[C@H]1O (stereo in doubt) [Tridecyl maltoside] | 0.03 mM |  |  |  |  |  |  |
| CCCCCCCCCCCCO[C@@H]1O[C@H](CO[C@H]2O[C@H](C(=O)NCCCC[C@H](NC(=O)[C@@H](NC(=O)[C@H](Cc3ccccc3)NC(=O)[C@H](CCC(=O)O)NC(=O)[C@@H]3CCCCNC(=O)CC[C@H](NC(=O)[C@H](CC(=O)O)NC(=O)[C@H](CC(C)C)NC(=O)[C@H](Cc4ccc(O)cc4)NC(=O)[C@H](CCCCN)NC(=O)[C@H](CO)NC(=O)[C@H](Cc4ccc(O)cc4)NC(=O)[C@H](CC(=O)O)NC(=O)[C@H](CO)NC(=O)[C@@H](NC(=O)[C@H](Cc4ccccc4)NC(=O)[C@@H](NC(=O)CNC(=O)[C@H](CCC(N)=O)NC(=O)C(C)(C)NC(=O)[C@@H](N)Cc4c[nH]cn4)[C@@H](C)O)[C@@H](C)O)C(=O)N[C@@H](CCC(N)=O)C(=O)N[C@@H](C)C(=O)N[C@@H](C)C(=O)N3)[C@@H](C)CC)C(=O)N[C@@H](Cc3c[nH]c4ccccc34)C(=O)N[C@@H](CC(C)C)C(=O)N[C@@H](CC(C)C)C(=O)N[C@@H](CCC(N)=O)C(=O)N[C@H](C(N)=O)[C@@H](C)O)[C@H](O)[C@H](O)[C@H]2O)[C@@H](O)[C@H](O)[C@H]1O [EU-A1023, His1-Aib2-Gln3-Gly4-Thr5-Phe6-Thr7-Ser8-Asp9-Tyr10-Ser11-Lys12-Tyr13-Leu14-Asp15-Glu*16-Gln17 Ala18-Ala19-Lys*20-Glu21-Phe22-Ile23-Lys(N-omega(1-dodecylbeta-D-melibiouronyl))24-Trp25-Leu26-Leu27-Gln28-Thr29-NH2] |  | 508 mg/dL | 264 mg/dL | 194 mg/dL | 375 mg/dL |  | db/db mice - Mean Blood Glucose, 0 hr (db/db mice; 50 nmole/kg s.c.): 507 mg/dL; db/db mice - Mean Blood Glucose, 10 hr (db/db mice; 50 nmole/kg s.c.): 310 mg/dL; db/db mice - Mean Blood Glucose, 24 hr (db/db mice; 50 nmole/kg s.c.): 355 mg/dL; db/db mice - Mean Blood Glucose, 48 hr (db/db mice; 50 nmole/kg s.c.): 375 mg/dL |
| CCCCCCCCCCCO[C@@H]1O[C@H](C(=O)NCCCC[C@H](NC(=O)[C@@H](NC(=O)[C@H](Cc2ccccc2)NC(=O)[C@H](CCC(=O)O)NC(=O)[C@@H]2CCCCNC(=O)CC[C@H](NC(=O)[C@H](CC(=O)O)NC(=O)[C@H](CC(C)C)NC(=O)[C@H](Cc3ccc(O)cc3)NC(=O)[C@H](CCCCN)NC(=O)[C@H](CO)NC(=O)[C@H](Cc3ccc(O)cc3)NC(=O)[C@H](CC(=O)O)NC(=O)[C@H](CO)NC(=O)[C@@H](NC(=O)[C@H](Cc3ccccc3)NC(=O)[C@@H](NC(=O)CNC(=O)[C@H](CCC(N)=O)NC(=O)C(C)(C)NC(=O)[C@@H](N)Cc3c[nH]cn3)[C@@H](C)O)[C@@H](C)O)C(=O)N[C@@H](CCC(N)=O)C(=O)N[C@@H](C)C(=O)N[C@@H](C)C(=O)N2)[C@@H](C)CC)C(=O)N[C@@H](Cc2c[nH]c3ccccc23)C(=O)N[C@@H](CC(C)C)C(=O)N[C@@H](CC(C)C)C(=O)N[C@@H](CCC(N)=O)C(=O)N[C@H](C(N)=O)[C@@H](C)O)[C@@H](O)[C@H](O)[C@H]1O [EU-A1168, His1-Aib2-Gln3-Gly4-Thr5-Phe6-Thr7-Ser8-Asp9-Tyr10-Ser11-Lys12-Tyr13-Leu14-Asp15-Glu*16-Gln17 Ala18-Ala19-Lys*20-Glu21-Phe22-Ile23-Lys(N-omega(1-undecylbeta-D-glucuronyl))24-Trp25-Leu26-Leu27-Gln28-Thr29-NH2] |  | 380 mg/dL | 133 mg/dL | 169 mg/dL | 164 mg/dL | 0.14 nM | EC50 (GLP-1 R): 0.07 nM |
| CCCCCCCCCCO[C@@H]1O[C@H](CO)[C@@H](O[C@H]2O[C@H](CO)[C@@H](O)[C@H](O)[C@H]2O)[C@H](O)[C@H]1O [Decyl maltoside] | 1.8 mM |  |  |  |  |  |  |
| Sucrose dodecanoate | 0.3 mM |  |  |  |  |  |  |
| CCCCCCCCO[C@@H]1O[C@H](C(=O)NCCCC[C@H](NC(=O)[C@@H](NC(=O)[C@H](Cc2ccccc2)NC(=O)[C@H](CCC(=O)O)NC(=O)[C@@H]2CCCCNC(=O)CC[C@H](NC(=O)[C@H](CC(=O)O)NC(=O)[C@H](CC(C)C)NC(=O)[C@H](Cc3ccc(O)cc3)NC(=O)[C@H](CCCCN)NC(=O)[C@H](CO)NC(=O)[C@H](Cc3ccc(O)cc3)NC(=O)[C@H](CC(=O)O)NC(=O)[C@H](CO)NC(=O)[C@@H](NC(=O)[C@H](Cc3ccccc3)NC(=O)[C@@H](NC(=O)CNC(=O)[C@H](CCC(N)=O)NC(=O)C(C)(C)NC(=O)[C@@H](N)Cc3c[nH]cn3)[C@@H](C)O)[C@@H](C)O)C(=O)N[C@@H](CCC(N)=O)C(=O)N[C@@H](C)C(=O)N[C@@H](C)C(=O)N2)[C@@H](C)CC)C(=O)N[C@@H](Cc2c[nH]c3ccccc23)C(=O)N[C@@H](CC(C)C)C(=O)N[C@@H](CC(C)C)C(=O)N[C@@H](CCC(N)=O)C(=O)N[C@H](C(N)=O)[C@@H](C)O)[C@@H](O)[C@H](O)[C@H]1O [EU-A992, His1-Aib2-Gln3-Gly4-Thr5-Phe6-Thr7-Ser8-Asp9-Tyr10-Ser11-Lys12-Tyr13-Leu14-Asp15-Glu*16-Gln17 Ala18-Ala19-Lys*20-Glu21-Phe22-Ile23-Lys(N-omega(1-octylbeta-D-glucuronyl))24-Trp25-Leu26-Leu27-Gln28-Thr29-NH2] |  | 405 mg/dL | 104 mg/dL | 112 mg/dL | 130 mg/dL | 0.019 nM |  |
| CCCCCCCCCCO[C@@H]1O[C@H](C(=O)NCCCC[C@H](NC(=O)[C@@H](NC(=O)[C@H](Cc2ccccc2)NC(=O)[C@H](CCC(=O)O)NC(=O)[C@@H]2CCCCNC(=O)CC[C@H](NC(=O)[C@H](CC(=O)O)NC(=O)[C@H](CC(C)C)NC(=O)[C@H](Cc3ccc(O)cc3)NC(=O)[C@H](CCCCN)NC(=O)[C@H](CO)NC(=O)[C@H](Cc3ccc(O)cc3)NC(=O)[C@H](CC(=O)O)NC(=O)[C@H](CO)NC(=O)[C@@H](NC(=O)[C@H](Cc3ccccc3)NC(=O)[C@@H](NC(=O)CNC(=O)[C@H](CCC(N)=O)NC(=O)C(C)(C)NC(=O)[C@@H](N)Cc3c[nH]cn3)[C@@H](C)O)[C@@H](C)O)C(=O)N[C@@H](CCC(N)=O)C(=O)N[C@@H](C)C(=O)N[C@@H](C)C(=O)N2)[C@@H](C)CC)C(=O)N[C@@H](Cc2c[nH]c3ccccc23)C(=O)N[C@@H](CC(C)C)C(=O)N[C@@H](CC(C)C)C(=O)N[C@@H](CCC(N)=O)C(=O)N[C@H](C(N)=O)[C@@H](C)O)[C@@H](O)[C@H](O)[C@H]1O [EU-A1167, His1-Aib2-Gln3-Gly4-Thr5-Phe6-Thr7-Ser8-Asp9-Tyr10-Ser11-Lys12-Tyr13-Leu14-Asp15-Glu*16-Gln17 Ala18-Ala19-Lys*20-Glu21-Phe22-Ile23-Lys(N-omega(1-decylbeta-D-glucuronyl))24-Trp25-Leu26-Leu27-Gln28-Thr29-NH2] |  | 379 mg/dL | 171 mg/dL | 117 mg/dL | 113 mg/dL | 0.019 nM | EC50 (GLP-1 R): 0.013 nM |

Source: patent US11065304B2, “Peptide pharmaceuticals for insulin resistance” (MEDERIS DIABETES, LLC, priority 2012, dated 2021)
